According to ChEMBL document CHEMBL4428109, “Structure-activity relationship studies of non-carboxylic acid peroxisome proliferator-activated receptor α/δ (PPARα/δ) dual agonists” (Bioorg Med Chem, 2016):
The source made the active and inactive calls. No cut-off for these calls is given here.

Columns and labels:
[1] = molecular target: T1, Peroxisome proliferator-activated receptor alpha (Homo sapiens, UniProt Q07869); assay: Agonist activity at N-terminal Gal4 fused human PPARalpha LBD transfected in HEK293 cells after 24 hrs by luciferase reporter gene assay; format: cell-based
T1 sequence (Q07869 whole entry): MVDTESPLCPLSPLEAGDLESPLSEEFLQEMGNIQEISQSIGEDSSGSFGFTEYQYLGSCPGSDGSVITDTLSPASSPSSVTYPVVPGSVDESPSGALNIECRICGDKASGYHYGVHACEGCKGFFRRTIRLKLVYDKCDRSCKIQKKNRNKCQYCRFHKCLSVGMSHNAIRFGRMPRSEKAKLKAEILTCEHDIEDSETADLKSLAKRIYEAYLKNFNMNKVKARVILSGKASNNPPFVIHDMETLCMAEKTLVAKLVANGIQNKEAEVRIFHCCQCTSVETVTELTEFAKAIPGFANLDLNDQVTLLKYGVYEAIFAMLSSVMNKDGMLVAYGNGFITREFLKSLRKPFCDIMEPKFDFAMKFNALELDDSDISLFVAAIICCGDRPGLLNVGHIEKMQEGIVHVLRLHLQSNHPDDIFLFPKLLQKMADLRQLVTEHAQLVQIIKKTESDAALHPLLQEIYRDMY

[2] = molecular target: T2, Peroxisome proliferator-activated receptor alpha (Homo sapiens) (UniProt Q07869); assay: Agonist activity at N-terminal Gal4 fused human PPARalpha LBD transfected in HEK293 cells after 24 hrs by luciferase reporter gene assay relative to GW7647; format: cell-based
T2 sequence (whole entry): T1 sequence (Q07869 whole entry)

[3] = molecular target: T3, Retinoic acid receptor RXR-alpha (Homo sapiens) (UniProt P19793); assay: Agonist activity at RXRalpha (unknown origin) at < 20 uM
T3 sequence (whole entry): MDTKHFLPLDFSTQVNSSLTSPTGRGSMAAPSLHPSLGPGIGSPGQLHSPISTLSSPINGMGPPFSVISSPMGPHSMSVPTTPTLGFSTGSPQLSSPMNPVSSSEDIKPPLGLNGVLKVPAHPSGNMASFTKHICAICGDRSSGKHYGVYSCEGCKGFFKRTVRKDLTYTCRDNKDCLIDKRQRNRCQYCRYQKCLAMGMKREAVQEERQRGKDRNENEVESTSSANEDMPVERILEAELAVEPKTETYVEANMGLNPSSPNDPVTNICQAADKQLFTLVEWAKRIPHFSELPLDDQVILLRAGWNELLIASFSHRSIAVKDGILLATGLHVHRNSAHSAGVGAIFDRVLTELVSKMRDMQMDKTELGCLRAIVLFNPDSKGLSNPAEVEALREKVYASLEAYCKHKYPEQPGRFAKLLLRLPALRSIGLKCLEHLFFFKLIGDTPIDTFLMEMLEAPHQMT

[4] = molecular target: T4, Retinoic acid receptor RXR-gamma (Homo sapiens) (UniProt P48443); assay: Agonist activity at RXRgamma (unknown origin) at < 20 uM
T4 sequence (whole entry): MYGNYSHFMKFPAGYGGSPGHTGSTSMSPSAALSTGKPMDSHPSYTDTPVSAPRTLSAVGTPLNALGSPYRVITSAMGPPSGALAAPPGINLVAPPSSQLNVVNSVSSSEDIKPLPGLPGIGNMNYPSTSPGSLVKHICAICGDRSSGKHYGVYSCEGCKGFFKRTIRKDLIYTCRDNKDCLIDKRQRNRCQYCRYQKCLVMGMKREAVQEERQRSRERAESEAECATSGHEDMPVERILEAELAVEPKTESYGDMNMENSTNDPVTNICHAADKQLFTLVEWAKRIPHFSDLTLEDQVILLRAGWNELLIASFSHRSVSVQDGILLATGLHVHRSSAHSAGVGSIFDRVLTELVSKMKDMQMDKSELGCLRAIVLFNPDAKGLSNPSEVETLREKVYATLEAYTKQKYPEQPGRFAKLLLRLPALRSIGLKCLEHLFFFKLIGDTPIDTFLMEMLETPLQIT

[5] = molecular target: T5, Oxysterols receptor LXR-beta (Homo sapiens) (UniProt P55055); assay: Agonist activity at LXRbeta (unknown origin) at < 20 uM
T5 sequence (whole entry): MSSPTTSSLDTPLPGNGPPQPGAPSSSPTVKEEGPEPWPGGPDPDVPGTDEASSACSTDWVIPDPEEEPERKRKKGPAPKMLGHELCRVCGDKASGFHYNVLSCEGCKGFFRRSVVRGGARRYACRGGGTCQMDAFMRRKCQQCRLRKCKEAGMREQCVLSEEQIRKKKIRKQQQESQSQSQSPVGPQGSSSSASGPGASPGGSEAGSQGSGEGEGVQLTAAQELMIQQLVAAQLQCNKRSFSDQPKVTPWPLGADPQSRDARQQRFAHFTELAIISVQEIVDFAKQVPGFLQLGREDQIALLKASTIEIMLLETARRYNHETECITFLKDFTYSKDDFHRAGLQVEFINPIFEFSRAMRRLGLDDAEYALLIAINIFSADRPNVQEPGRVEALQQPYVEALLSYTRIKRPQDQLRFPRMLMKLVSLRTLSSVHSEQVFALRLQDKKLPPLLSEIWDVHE

[6] = molecular target: T6, Bile acid receptor (Homo sapiens) (UniProt Q96RI1); assay: Agonist activity at FXR (unknown origin) at < 20 uM
T6 sequence (whole entry): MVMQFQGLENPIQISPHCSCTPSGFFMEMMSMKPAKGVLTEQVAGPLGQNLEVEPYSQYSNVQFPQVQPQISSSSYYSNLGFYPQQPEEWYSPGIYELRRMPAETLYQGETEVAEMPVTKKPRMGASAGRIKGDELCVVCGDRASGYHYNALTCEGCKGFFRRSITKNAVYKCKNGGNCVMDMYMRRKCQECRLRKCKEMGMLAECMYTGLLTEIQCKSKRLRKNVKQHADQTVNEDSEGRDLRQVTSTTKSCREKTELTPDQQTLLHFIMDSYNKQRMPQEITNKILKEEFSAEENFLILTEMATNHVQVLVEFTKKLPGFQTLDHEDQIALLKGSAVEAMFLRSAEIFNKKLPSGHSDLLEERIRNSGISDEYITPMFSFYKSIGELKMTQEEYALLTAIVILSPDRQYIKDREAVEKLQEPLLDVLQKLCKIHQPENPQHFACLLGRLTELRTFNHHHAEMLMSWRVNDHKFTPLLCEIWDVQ

With CC(=O)NC(C)c1nc(-c2ccc(Oc3ccc(OCc4ccccc4)cc3)cc2)no1 (stereo unspecified) the EC50 [1] was 0.033 µM, the Emax [2] was 16 to 35% and the Activity [3] was “inactive”. For the same molecule, the Activity [4] was “inactive”, the Activity [5] was “inactive” and the Activity [6] was “inactive”.
